According to patent US20250034135A1, “ANTI-APOPTOTIC PROTEIN BCL-2 INHIBITOR, PHARMACEUTICAL COMPOSITION AND USES THEREOF” (HANGZHOU HEALZEN THERAPEUTICS CO., LTD., priority 2021, published 2025):

These compounds were tested against BCL2 (Homo sapiens (Human), UniProt P10415) (assay: Molecular level activity test of anti-apoptotic protein BCL2 (HTRF, binding to Bim peptide)). Conditions: HTRF, binding of BCL2 to Bim peptide; read-out: BCL2 nM (inhibitory activity, IC50).
Summary of the method: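 Competition binding format: recombinant His-BCL2 and a biotin-Bim peptide are incubated with compound for 1 h, followed by 4 h at room temperature with HTRF detection antibodies.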

BCL2, sequence (P10415 whole entry): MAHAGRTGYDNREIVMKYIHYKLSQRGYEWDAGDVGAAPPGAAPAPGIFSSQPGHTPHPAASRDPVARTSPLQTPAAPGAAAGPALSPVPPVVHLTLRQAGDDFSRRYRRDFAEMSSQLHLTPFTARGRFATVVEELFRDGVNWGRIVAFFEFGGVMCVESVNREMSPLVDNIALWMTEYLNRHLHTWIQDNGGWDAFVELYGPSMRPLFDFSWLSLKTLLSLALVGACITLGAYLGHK

IC50 [nM]	SMILES
< 10	COc1ccc(CN2CCN(C3CC4(CCN(c5ccc(C(=O)NS(=O)(=O)c6cc([N+](=O)[O-])c(NC[C@H]7COCCO7)c7c6OCO7)c(Oc6cnc7[nH]ccc7c6)c5)CC4)C3)[C@H](c3ccccc3C(C)C)C2)cc1 [compound 148, N-((7-((((S)-1,4-dioxan-2-yl)methyl)amino)-6-nitrobenzo[d][1,3]dioxocyclopent-4-yl)sulfonyl)-2-((1H-pyrrolo[2,3-b]pyrid-5-yl)oxy)-4-(2-((R)-2-(2-isopropylphenyl)-4-(4-methoxybenzyl)piperazin-1-yl)-7-azaspiro[3.5]non-7-yl)benzamide]
< 10	COc1ccc(CN2CCN(C3CC4(CCN(c5cc(Oc6cnc7[nH]ccc7c6)c(C(=O)NS(=O)(=O)c6cc([N+](=O)[O-])c(NC[C@H]7COCCO7)c7c6OCO7)cn5)CC4)C3)[C@H](c3ccccc3C(C)C)C2)cc1 [compound 151, N-((7-((((S)-1,4-dioxan-2-yl)methyl)amino)-6-nitrobenzo[d][1,3]dioxocyclopent-4-yl)sulfonyl)-4-((1H-pyrrolo[2,3-b]pyrid-5-yl)ox)-6-(2-((R)-2-(2-isopropylphenyl)-4-(4-methoxybenzyl)piperazin-1-yl)-7-azaspiro[3.5]non-7-yl) nicotinamide]
< 10	COc1ccc(CN2CCN(C3CC4(CCN(c5cc(Oc6cnc7[nH]ccc7c6)c(C(=O)NS(=O)(=O)c6ccc(NCC7(F)CCOCC7)c([N+](=O)[O-])c6)cc5F)CC4)C3)[C@@H](c3ccccc3C(C)C)C2)cc1 [compound 153, (S)-2-((1H-pyrrolo[2,3-b]pyrid-5-yl)oxy)-5-fluoro-N-((4-(((4-fluorotetrahydro-2H-pyran-4-yl)methyl)amino)-3-nitrophenyl)sulfonyl)-4-(2-(2-(2-isopropylphenyl)-4-(4-methoxybenzyl)piperazin-1-yl)-7-azaspiro[3.5]non-7-yl)benzamide]
< 10	COc1ccc(CN2C[C@@H](c3ccccc3C(C)C)N(C3CC4(CCN(c5cc(Oc6cnc7[nH]ccc7c6)c(C(=O)NS(=O)(=O)c6ccc(NCC7(F)CCOCC7)c([N+](=O)[O-])c6)cc5F)CC4)C3)C[C@@H]2C)cc1 [compound 154, 2-((1H-pyrrolo[2,3-b]pyrid-5-yl)oxy)-5-fluoro-N-((4-(((4-fluorotetrahydro-2H-pyran-4-yl)methyl)amino)-3-nitrophenyl)sulfonyl)-4-(2-((2R,5S)-2-(2-isopropylphenyl)-4-(4-methoxybenzyl)-5-methylpiperazin-1-yl)-7-azaspiro[3.5]non-7-yl)benzamide]
< 10	COc1ccc(CN2C[C@@H](c3ccccc3C(C)C)N(C3CC4(CCN(c5cc(Oc6cnc7[nH]ccc7c6)c(C(=O)NS(=O)(=O)c6ccc(NCC7(F)CCOCC7)c([N+](=O)[O-])c6)cc5F)CC4)C3)C[C@H]2C)cc1 [compound 155, 2-((1H-pyrrolo[2,3-b]pyrid-5-yl)oxy)-5-fluoro-N-((4-(((4-fluorotetrahydro-2H-pyran-4-yl)methyl)amino)-3-nitrophenyl)sulfonyl)-4-(2-((2R,5R)-2-(2-isopropylphenyl)-4-(4-methoxybenzyl)-5-methylpiperazin-1-yl)-7-azaspiro[3.5]non-7-yl)benzamide]
< 10	CC(C)c1ccccc1[C@@H]1CCCN1C1CC2(CCN(c3cc(Oc4cnc5[nH]ccc5c4)c(C(=O)NS(=O)(=O)c4cc([N+](=O)[O-])c(NCC5CCOCC5)c5c4OCO5)cc3F)CC2)C1 [compound 156, (S)-2-((1H-pyrrolo[2,3-b]pyrid-5-yl)oxy)-5-fluoro-4-(2-(2-(2-isopropylphenyl)pyrrolidin-1-yl)-7-azaspiro[3.5]non-7-yl)-N-((6-nitro-7-(((tetrahydro-2H-pyran-4-yl)methyl)amino)benzo[d][1,3]dioxocyclopent-4-yl)sulfonyl)benzamide]
< 10	CC(C)c1ccccc1[C@@H]1CCCN1C1CC2(CCN(c3cc(Oc4cnc5[nH]ccc5c4)c(C(=O)NS(=O)(=O)c4cc([N+](=O)[O-])c(NC[C@H]5COCCO5)c5c4OCO5)cc3F)CC2)C1 [compound 157, N-((7-((((S)-1,4-dioxan-2-yl)methyl)amino)-6-nitrobenzo[d][1,3]dioxocyclopent-4-yl)sulfonyl)-2-((1H-pyrrolo[2,3-b]pyrid-5-yl)oxy)-5-fluoro-4-(2-((S)-2-(2-isopropylphenyl)pyrrolidin-1-yl)-7-azaspiro[3.5]non-7-yl)benzamide]
< 10	CC(C)c1ccccc1[C@@H]1CCCN1C1CC2(CCN(c3ccc(C(=O)NS(=O)(=O)c4cc([N+](=O)[O-])c(NC[C@H]5CC[C@](C)(O)CC5)c5c4OCO5)c(Oc4cnc5[nH]ccc5c4)c3)CC2)C1 [compound 158, 2-((1H-pyrrolo[2,3-b]pyrid-5-yl)oxy)-N-((7-((((1r, 4r)-4-hydroxy-4-methylcyclohexyl)methyl)amino)-6-nitrobenzo[d][1,3]dioxocyclopent-4-yl)sulfonyl)-4-(2-((S)-2-(2-isopropylphenyl)pyrrolidin-1-yl)-7-azaspiro[3.5]non-7-yl)benzamide]
< 10	CC(C)c1ccccc1[C@@H]1CCCN1C1CC2(CCN(c3ccc(C(=O)NS(=O)(=O)c4cc([N+](=O)[O-])c(NCC5(F)CCOCC5)c5c4OCO5)c(Oc4cnc5[nH]ccc5c4)c3)CC2)C1 [compound 159, (S)-2-((1H-pyrrolo[2,3-b]pyrid-5-yl)oxy)-N-((7-(((4-fluorotetrahydro-2H-pyran-4-yl)methyl)amino)-6-nitrobenzo[d][1,3]dioxocyclopent-4-yl)sulfonyl)-4-(2-(2-(2-isopropylphenyl)pyrrolidin-1-yl)-7-azaspiro[3.5]non-7-yl)benzamide]
< 10	CC(C)c1ccccc1[C@@H]1CCCN1C1CC2(CCN(c3ccc(C(=O)NS(=O)(=O)c4cc([N+](=O)[O-])c(NCC5CCOCC5)c5c4OCO5)c(Oc4cnc5[nH]ccc5c4)c3)CC2)C1 [compound 160, (S)-2-((1H-pyrrolo[2,3-b]pyrid-5-yl)oxy)-4-(2-(2-(2-isopropylphenyl)pyrrolidin-1-yl)-7-azaspiro[3.5]non-7-yl)-N-((6-nitro-7-(((tetrahydro-2H-pyran-4-yl)methyl)amino)benzo[d][1,3]dioxocyclopent-4-yl)sulfonyl)benzamide]
< 10	CC(C)c1ccccc1[C@@H]1CCCN1C1CC2(CCN(c3ccc(C(=O)NS(=O)(=O)c4cc([N+](=O)[O-])c(NC[C@H]5COCCO5)c5c4OCO5)c(Oc4cnc5[nH]ccc5c4)c3)CC2)C1 [compound 161, N-((7-((((S)-1,4-dioxan-2-yl)methyl)amino)-6-nitrobenzo[d][1,3]dioxocyclopent-4-yl)sulfonyl)-2-((1H-pyrrolo[2,3-b]pyrid-5-yl)oxy)-4-(2-((S)-2-(2-isopropylphenyl)pyrrolidin-1-yl)-7-azaspiro[3.5]non-7-yl)benzamide]
< 10	COc1ccc(CN2CCN(C3CC4(CCN(c5ccc(C(=O)NS(=O)(=O)c6cc([N+](=O)[O-])c(NCC7(F)CCOCC7)c7c6OC(C)(C)O7)c(Oc6cnc7[nH]ccc7c6)c5)CC4)C3)[C@H](c3ccccc3C(C)C)C2)cc1 [compound 162, (R)-2-((1H-pyrrolo[2,3-b]pyrid-5-yl)oxy)-N-((7-(((4-fluorotetrahydro-2H-pyran-4-yl)methyl)amino)-2,2-dimethyl-6-nitrobenzo[d][1,3]dioxocyclopent-4-yl)sulfonyl)-4-(2-(2-(2-isopropylphenyl)-4-(4-methoxybenzyl)piperazin-1-yl)-7-azaspiro[3.5]non-7-yl)benzamide]
